Measurements published in article PMC3340406, “Molecular and Functional Characterization of Novel Fructosyltransferases and Invertases from Agave tequilana” (PLoS ONE, 2012).

Key:
Type in all cases: biochemical
AtqCwinv-1 [1] = biological target: T1, AtqCwinv-1 (Agave tequilana, UniProt I1ZBQ2); assay: TLC and HPAEC-PAD, sucrose hydrolysis; details: 100 mM sucrose, 50 mM sodium acetate pH 4.3, 30 °C; 10 µg affinity purified protein
T1 construct: gene Cwinv1; mature region, signal peptide (24 aa) removed, His-tagged, secreted from Pichia pastoris X-33 (pPICZalphaA); full length 575 aa; about 75 kDa on gel
T1 sequence (I1ZBQ2 25-575): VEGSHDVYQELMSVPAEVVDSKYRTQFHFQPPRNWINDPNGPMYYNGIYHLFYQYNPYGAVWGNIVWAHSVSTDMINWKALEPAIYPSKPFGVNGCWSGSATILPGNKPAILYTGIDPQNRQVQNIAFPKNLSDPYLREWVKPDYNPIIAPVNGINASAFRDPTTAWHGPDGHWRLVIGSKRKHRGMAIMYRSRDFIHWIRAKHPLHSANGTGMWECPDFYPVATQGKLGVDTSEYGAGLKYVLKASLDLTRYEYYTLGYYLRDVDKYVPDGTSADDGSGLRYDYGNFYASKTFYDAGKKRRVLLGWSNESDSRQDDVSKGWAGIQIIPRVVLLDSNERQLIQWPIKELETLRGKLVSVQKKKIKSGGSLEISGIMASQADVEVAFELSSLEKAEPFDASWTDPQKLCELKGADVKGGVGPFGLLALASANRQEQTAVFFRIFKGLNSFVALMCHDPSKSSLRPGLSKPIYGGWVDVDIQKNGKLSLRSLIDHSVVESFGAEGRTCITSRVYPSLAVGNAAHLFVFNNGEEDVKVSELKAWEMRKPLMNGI

AtqCwinv-1 [2] = biological target: T1, AtqCwinv-1; assay: HPAEC-PAD, exohydrolase activity; details: 100 mM 1-kestose, 50 mM sodium acetate pH 4.3, 30 °C; 10 µg affinity purified protein
Atq6G-FFT-1 = biological target: T2, Atq6G-FFT-1 (Agave tequilana, UniProt I1ZBQ0); assay: HPAEC-PAD product analysis; details: 50 mM 1-kestose (stock contains some sucrose and nystose), 50 mM sodium acetate pH 5.5, 30 °C; 20 µg total protein extract
T2 construct: gene FFT1; mature region, signal peptide (34 aa) removed, His-tagged, secreted from Pichia pastoris X-33 (pPICZalphaA); full length 627 aa; about 80 kDa on gel
T2 sequence (I1ZBQ0 35-627): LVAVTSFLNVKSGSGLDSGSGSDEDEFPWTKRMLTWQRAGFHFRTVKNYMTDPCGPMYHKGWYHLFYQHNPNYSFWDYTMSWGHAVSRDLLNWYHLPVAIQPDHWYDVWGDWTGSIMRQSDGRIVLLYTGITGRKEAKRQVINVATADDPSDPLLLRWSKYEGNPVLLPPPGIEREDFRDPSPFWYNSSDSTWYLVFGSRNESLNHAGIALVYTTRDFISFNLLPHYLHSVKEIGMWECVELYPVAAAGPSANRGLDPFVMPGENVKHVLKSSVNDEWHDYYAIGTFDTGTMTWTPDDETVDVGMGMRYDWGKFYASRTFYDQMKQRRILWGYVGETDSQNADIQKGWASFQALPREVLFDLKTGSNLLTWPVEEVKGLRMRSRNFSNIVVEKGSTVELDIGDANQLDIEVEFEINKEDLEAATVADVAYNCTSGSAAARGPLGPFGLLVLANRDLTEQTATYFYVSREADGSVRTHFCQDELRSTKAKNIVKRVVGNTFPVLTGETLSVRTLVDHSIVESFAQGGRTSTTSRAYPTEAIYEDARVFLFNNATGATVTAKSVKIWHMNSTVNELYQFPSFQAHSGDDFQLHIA

## OC[C@H]1O[C@@](CO)(O[C@H]2O[C@H](CO)[C@@H](O)[C@H](O)[C@H]2O)[C@@H](O)[C@@H]1O [sucrose]
AtqCwinv-1 [1]
  TLC and HPAEC-PAD, sucrose hydrolysis: AtqCwinv-1 produced fructose and glucose when incubated with sucrose as the sole substrate

## OC[C@H]1O[C@@](CO)(OC[C@@]2(O[C@H]3O[C@H](CO)[C@@H](O)[C@H](O)[C@H]3O)O[C@H](CO)[C@@H](O)[C@@H]2O)[C@@H](O)[C@@H]1O [1-kestose]
AtqCwinv-1 [2]
  HPAEC-PAD, exohydrolase activity: some exohydrolytic activity occurred when sucrose was replaced by 1-kestose as substrate
Atq6G-FFT-1
  HPAEC-PAD product analysis: 1-kestose was used as substrate no neokestose was produced but a tetrasaccharide 4c molecule
